Assays:
Assay type in all cases: biochemical
Details in all cases: method of Davies et al.
[1] = molecular target: stress-activated protein kinase 2a (SAPK-2A or p38) (Homo sapiens, UniProt Q16539); experiment: Panel of protein kinases: SAPK-2A
Description: (§1) The compounds of the present invention were screened against a large panel of protein kinase to determine inhibition activity for CDK as against a variety of protein kinases. The assay was conducted using methods and materials described by Davies, S et al. Specificity and Mechanism of Action of Some Commonly Used Protein Kinase Inhibitors, Biochem J. 351, 95–105 (2000), the contents of which are herein incorporated by reference. The compounds were screened against a panel of protein kinases which include AMP-activiated protein kinase (AMPK), checkpoint kinase (CHK1), casein kinases 1 and 2 (CK1 and CK2), cytoplasmic tyrosine kinase (CSK), dual serine/threonine/tyrosine kinase (DYRK1A), glycogen synthase kinase 3 (GSK3B), c-Jun N-terminal kinase (JNK), lymphocyte kinase (LCK), mitogen-activated protein kinases 2, K-1a, K2 (MAPK2, MAPKAP-K1a, and MAPKAP-K2), MAPK kinase (MKK1, also called MEK), mitogen and stress-activated protein kinase 1 (MSK1), never-in-mitosis kinase 6 (NEK6), p70 ribosomal protein S6 kinase (P70s6K1), 3-phosphoinositide-dependent protein kinase 1 (PDK1), phosphorylase kinase (PHK), protein kinase A (PKA), protein kinase B (PKB, also called Akt), protein kinase C (PKCa), p38-regulated/activated kinase (PRAK), Rho-dependent protein kinase (ROCK-II), stress-activated protein kinase 2a, 2b, 3 and 4 (SAPK-2A or p38, SAPK-2b or p38β2, SAPK3 or p38γ, SAPK4 or p38δ, respectively), and serum- and glucocorticoid-induced kinase (SGK). Compound activity was grouped into categories of weak (<50%), moderate (50–75%) and strong inhibition (>75%).

casein kinase 1 (CK1) = experiment: Panel of protein kinases: CK1
Description: as §1

protein kinase C (PKCa) = protein kinase C (PKCa) (Homo sapiens, UniProt P17252); experiment: Panel of protein kinases: PKCa
Description: as §1

[2] = molecular target: T1, serum- and glucocorticoid-induced kinase (SGK) (Homo sapiens, UniProt O00141, S422D); experiment: Panel of protein kinases: SGK
T1 sequence (O00141 61-431 S422D limits assumed): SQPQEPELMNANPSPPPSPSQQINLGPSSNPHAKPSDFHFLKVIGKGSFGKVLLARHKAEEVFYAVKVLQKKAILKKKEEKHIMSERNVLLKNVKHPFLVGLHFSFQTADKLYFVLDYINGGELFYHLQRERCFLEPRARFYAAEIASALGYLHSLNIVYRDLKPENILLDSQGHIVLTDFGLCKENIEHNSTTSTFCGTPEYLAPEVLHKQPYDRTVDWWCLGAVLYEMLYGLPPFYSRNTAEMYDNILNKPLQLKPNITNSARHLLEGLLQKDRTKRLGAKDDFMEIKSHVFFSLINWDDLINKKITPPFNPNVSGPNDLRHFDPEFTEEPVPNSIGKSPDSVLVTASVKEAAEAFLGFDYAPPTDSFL
Description: as §1

[3] = molecular target: T2, stress-activated protein kinase 4 (SAPK4 or p38δ) (Homo sapiens, UniProt O15264); experiment: Panel of protein kinases: SAPK4
T2 sequence (O15264 1-365): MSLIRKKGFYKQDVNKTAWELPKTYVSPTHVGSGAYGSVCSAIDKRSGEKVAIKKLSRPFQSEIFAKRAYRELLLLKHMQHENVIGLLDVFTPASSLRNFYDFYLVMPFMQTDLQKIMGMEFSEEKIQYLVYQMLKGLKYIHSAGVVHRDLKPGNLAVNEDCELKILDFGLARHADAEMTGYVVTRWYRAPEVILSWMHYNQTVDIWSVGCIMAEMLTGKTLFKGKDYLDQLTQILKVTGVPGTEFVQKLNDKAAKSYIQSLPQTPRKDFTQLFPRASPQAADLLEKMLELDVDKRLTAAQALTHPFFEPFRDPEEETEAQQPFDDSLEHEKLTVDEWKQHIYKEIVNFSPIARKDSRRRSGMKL
Description: as §1

[4] = molecular target: protein kinase B (PKB, also called Akt) (Homo sapiens, UniProt P31749); experiment: Panel of protein kinases: PKB
Description: as §1

[5] = molecular target: never-in-mitosis kinase 6 (NEK6) (Homo sapiens, UniProt Q9HC98); experiment: Panel of protein kinases: NEK6
Description: as §1

[6] = tested on: AMP-activiated protein kinase (AMPK); experiment: Panel of protein kinases: AMPK
Description: as §1

[7] = tested on: p70 ribosomal protein S6 kinase (P70s6K1); experiment: Panel of protein kinases: P70s6K1
Description: as §1

checkpoint kinase (CHK1) = molecular target: T3, checkpoint kinase (CHK1) (Homo sapiens, UniProt O14757); experiment: Panel of protein kinases: CHK1
T3 sequence (O14757 1-476): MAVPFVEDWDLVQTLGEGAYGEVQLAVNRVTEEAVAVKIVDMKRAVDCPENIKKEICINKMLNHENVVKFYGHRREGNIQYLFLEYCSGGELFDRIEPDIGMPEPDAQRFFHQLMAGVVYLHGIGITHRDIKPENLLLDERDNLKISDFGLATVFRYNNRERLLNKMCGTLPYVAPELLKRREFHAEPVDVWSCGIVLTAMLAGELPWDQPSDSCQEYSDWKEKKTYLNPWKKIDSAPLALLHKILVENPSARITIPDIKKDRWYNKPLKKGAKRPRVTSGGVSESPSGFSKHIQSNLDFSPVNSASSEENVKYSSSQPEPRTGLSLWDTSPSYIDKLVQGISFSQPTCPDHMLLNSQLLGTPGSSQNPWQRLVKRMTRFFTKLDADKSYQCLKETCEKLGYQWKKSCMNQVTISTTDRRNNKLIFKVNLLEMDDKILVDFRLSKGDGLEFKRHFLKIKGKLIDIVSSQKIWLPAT
Description: as §1

casein kinase 2 (CK2) = experiment: Panel of protein kinases: CK2
Description: as §1

MAPKAP-K1a = MAPKAP-K1a (Homo sapiens, UniProt Q15418); experiment: Panel of protein kinases: MAPKAP-K1a
Description: as §1

[8] = molecular target: glycogen synthase kinase 3 (GSK3B) (Homo sapiens, UniProt P49841); experiment: Panel of protein kinases: GSK3B
Description: as §1

[9] = molecular target: cytoplasmic tyrosine kinase (CSK) (Homo sapiens, UniProt P41240); experiment: Panel of protein kinases: CSK
Description: as §1

[10] = molecular target: stress-activated protein kinase 2b (SAPK-2b or p38β2) (Homo sapiens, UniProt Q15759); experiment: Panel of protein kinases: SAPK-2b
Description: as §1

[11] = tested on: Rho-dependent protein kinase (ROCK-II); experiment: Panel of protein kinases: ROCK-II
Description: as §1

Sequence of cytoplasmic tyrosine kinase (CSK) (P41240 whole entry, species assumed): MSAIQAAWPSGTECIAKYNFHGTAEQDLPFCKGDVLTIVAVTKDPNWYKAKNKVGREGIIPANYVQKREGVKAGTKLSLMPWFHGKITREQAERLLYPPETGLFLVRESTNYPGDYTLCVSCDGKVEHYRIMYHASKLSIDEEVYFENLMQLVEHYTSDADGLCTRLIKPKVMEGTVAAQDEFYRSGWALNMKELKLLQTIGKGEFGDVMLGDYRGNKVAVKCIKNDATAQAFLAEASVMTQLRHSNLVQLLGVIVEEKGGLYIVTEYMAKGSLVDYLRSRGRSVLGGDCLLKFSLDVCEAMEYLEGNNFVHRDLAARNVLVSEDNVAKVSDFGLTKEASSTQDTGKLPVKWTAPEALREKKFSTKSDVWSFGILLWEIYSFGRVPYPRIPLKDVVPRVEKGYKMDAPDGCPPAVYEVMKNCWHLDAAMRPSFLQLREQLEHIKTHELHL
Sequence of MAPKAP-K1a (Q15418 whole entry, species assumed): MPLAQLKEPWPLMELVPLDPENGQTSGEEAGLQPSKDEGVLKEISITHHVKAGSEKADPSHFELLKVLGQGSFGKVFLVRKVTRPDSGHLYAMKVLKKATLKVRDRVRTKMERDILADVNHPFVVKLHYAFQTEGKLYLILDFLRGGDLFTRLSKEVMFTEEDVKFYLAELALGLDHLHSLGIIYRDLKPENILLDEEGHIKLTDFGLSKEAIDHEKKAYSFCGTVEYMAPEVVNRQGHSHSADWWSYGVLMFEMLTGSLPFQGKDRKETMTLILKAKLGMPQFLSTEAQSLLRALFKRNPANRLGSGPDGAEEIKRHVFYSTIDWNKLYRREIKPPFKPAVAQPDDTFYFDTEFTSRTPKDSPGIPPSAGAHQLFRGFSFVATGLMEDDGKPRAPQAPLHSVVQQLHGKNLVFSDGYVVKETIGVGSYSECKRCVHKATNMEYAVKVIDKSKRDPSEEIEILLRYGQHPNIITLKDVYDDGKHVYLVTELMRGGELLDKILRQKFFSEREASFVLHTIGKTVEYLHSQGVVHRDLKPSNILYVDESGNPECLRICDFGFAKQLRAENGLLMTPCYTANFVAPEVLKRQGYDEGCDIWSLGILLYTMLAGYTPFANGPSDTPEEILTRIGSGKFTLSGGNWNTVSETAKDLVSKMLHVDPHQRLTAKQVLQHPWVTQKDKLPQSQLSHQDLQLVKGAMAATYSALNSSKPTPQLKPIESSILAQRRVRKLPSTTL
Sequence of protein kinase B (PKB, also called Akt) (P31749 118-480 limits assumed, species assumed): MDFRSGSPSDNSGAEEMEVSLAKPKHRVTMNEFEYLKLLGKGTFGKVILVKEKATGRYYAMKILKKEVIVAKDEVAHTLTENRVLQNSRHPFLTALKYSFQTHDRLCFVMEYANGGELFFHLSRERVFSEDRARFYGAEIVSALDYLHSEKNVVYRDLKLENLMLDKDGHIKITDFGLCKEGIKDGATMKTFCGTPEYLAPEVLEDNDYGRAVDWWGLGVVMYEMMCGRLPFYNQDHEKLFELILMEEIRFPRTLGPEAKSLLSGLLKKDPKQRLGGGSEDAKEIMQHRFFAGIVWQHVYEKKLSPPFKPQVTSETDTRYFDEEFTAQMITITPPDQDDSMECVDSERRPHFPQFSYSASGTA
Sequence of stress-activated protein kinase 2b (SAPK-2b or p38β2) (Q15759 whole entry): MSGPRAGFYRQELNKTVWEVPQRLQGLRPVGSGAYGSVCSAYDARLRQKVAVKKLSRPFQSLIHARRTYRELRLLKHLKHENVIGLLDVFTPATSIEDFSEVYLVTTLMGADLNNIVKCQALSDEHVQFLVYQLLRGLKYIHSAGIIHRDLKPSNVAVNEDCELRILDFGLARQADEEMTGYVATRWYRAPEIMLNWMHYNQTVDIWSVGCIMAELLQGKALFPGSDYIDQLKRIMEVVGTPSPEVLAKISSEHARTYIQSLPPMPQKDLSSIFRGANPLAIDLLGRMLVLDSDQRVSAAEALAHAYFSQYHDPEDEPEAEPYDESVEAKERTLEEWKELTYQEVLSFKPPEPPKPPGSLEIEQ
Sequence of stress-activated protein kinase 2a (SAPK-2A or p38) (Q16539 whole entry, species assumed): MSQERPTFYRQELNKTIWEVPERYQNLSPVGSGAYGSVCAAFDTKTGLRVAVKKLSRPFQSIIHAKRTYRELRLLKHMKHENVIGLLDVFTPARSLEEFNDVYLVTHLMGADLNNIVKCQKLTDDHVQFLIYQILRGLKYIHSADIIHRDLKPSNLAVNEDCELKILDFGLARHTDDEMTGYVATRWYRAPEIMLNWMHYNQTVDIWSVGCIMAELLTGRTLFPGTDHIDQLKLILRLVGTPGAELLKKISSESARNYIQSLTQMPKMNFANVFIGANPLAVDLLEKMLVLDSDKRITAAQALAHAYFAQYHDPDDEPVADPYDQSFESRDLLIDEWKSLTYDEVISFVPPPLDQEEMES
Sequence of never-in-mitosis kinase 6 (NEK6) (Q9HC98 whole entry, species assumed): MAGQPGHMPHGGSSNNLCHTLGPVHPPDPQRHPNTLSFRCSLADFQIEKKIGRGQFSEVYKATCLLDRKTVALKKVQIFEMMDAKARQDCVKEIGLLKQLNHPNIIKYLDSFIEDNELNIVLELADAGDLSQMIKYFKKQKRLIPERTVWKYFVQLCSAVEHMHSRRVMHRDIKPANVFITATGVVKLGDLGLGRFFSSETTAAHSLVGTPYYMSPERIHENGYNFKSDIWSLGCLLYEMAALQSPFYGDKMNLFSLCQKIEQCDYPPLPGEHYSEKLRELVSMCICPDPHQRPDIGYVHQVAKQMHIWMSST
Sequence of glycogen synthase kinase 3 (GSK3B) (P49841 whole entry, species assumed): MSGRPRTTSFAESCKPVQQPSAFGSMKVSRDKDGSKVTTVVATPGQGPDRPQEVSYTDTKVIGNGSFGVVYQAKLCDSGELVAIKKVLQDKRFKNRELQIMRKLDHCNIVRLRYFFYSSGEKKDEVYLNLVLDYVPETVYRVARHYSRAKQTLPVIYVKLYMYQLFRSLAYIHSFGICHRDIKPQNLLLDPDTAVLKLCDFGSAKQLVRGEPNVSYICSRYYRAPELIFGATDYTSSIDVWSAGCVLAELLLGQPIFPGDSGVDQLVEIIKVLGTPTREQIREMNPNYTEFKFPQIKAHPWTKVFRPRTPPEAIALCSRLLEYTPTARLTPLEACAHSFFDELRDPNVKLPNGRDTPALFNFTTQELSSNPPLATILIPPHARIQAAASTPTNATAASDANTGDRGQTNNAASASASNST

Row | Compound | Kinase SAPK-2A inhibition [1] | Kinase CK1 inhibition (casein kinase 1 (CK1)) | Kinase PKCa inhibition (protein kinase C (PKCa)) | Kinase SGK inhibition [2] | Kinase SAPK4 inhibition [3] | Kinase PKB inhibition [4] | Kinase NEK6 inhibition [5] | Kinase AMPK inhibition [6] | Kinase P70s6K1 inhibition [7] | Kinase CHK1 inhibition (checkpoint kinase (CHK1)) | Kinase CK2 inhibition (casein kinase 2 (CK2)) | Kinase MAPKAP-K1a inhibition (MAPKAP-K1a) | Kinase GSK3B inhibition [8] | Kinase CSK inhibition [9] | Kinase SAPK-2b inhibition [10] | Kinase ROCK-II inhibition [11]
1 | CCNCc1cncc(-c2ccc3[nH]nc(-c4nc5ccccc5[nH]4)c3c2)c1C [A] | − (Weak inhibition <50%) | − (Weak inhibition <50%) | + (Moderate inhibition 50–75%) | + (Moderate inhibition 50–75%) | − (Weak inhibition <50%) | − (Weak inhibition <50%) | − (Weak inhibition <50%) | ++ (Strong inhibition >75%) | + (Moderate inhibition 50–75%) | + (Moderate inhibition 50–75%) | − (Weak inhibition <50%) | ++ (Strong inhibition >75%) | ++ (Strong inhibition >75%) | − (Weak inhibition <50%) | − (Weak inhibition <50%) | ++ (Strong inhibition >75%)
2 | CCNCc1cncc(-c2ccc3[nH]nc(-c4nc5c(C(=O)NC)cccc5[nH]4)c3c2)c1C [B] | − (Weak inhibition <50%) | − (Weak inhibition <50%) | ++ (Strong inhibition >75%) | + (Moderate inhibition 50–75%) | − (Weak inhibition <50%) | − (Weak inhibition <50%) | − (Weak inhibition <50%) | ++ (Strong inhibition >75%) | + (Moderate inhibition 50–75%) | + (Moderate inhibition 50–75%) | − (Weak inhibition <50%) | ++ (Strong inhibition >75%) | ++ (Strong inhibition >75%) | − (Weak inhibition <50%) | − (Weak inhibition <50%) | + (Moderate inhibition 50–75%)
3 | CCNCc1cncc(-c2ccc3[nH]nc(-c4nc5c(SC)cccc5[nH]4)c3c2)c1C [C] | − (Weak inhibition <50%) | − (Weak inhibition <50%) | + (Moderate inhibition 50–75%) | − (Weak inhibition <50%) | − (Weak inhibition <50%) | − (Weak inhibition <50%) | − (Weak inhibition <50%) | ++ (Strong inhibition >75%) | − (Weak inhibition <50%) | − (Weak inhibition <50%) | − (Weak inhibition <50%) | ++ (Strong inhibition >75%) | ++ (Strong inhibition >75%) | − (Weak inhibition <50%) | − (Weak inhibition <50%) | + (Moderate inhibition 50–75%)
4 | CCNCc1cncc(-c2ccc3[nH]nc(-c4nc5c(NC(C)=O)cccc5[nH]4)c3c2)c1C [D] | − (Weak inhibition <50%) | − (Weak inhibition <50%) | − (Weak inhibition <50%) | − (Weak inhibition <50%) | − (Weak inhibition <50%) | − (Weak inhibition <50%) | − (Weak inhibition <50%) | ++ (Strong inhibition >75%) | − (Weak inhibition <50%) | − (Weak inhibition <50%) | − (Weak inhibition <50%) | + (Moderate inhibition 50–75%) | ++ (Strong inhibition >75%) | − (Weak inhibition <50%) | − (Weak inhibition <50%) | − (Weak inhibition <50%)
5 | CCNCc1cncc(-c2ccc3[nH]nc(-c4nc5c(F)cc(F)cc5[nH]4)c3c2)c1C [Example 1, {5-[3-(4,6-Difluoro-1H-benzoimidazol-2-yl)-1H-indazol-5-yl]-4-methyl-pyridin-3-ylmethyl}-ethyl-amine] | − (Weak inhibition <50%) | − (Weak inhibition <50%) | − (Weak inhibition <50%) | − (Weak inhibition <50%) | − (Weak inhibition <50%) | − (Weak inhibition <50%) | − (Weak inhibition <50%) | ++ (Strong inhibition >75%) | − (Weak inhibition <50%) | − (Weak inhibition <50%) | − (Weak inhibition <50%) | ++ (Strong inhibition >75%) | ++ (Strong inhibition >75%) | − (Weak inhibition <50%) | − (Weak inhibition <50%) | − (Weak inhibition <50%)
6 | CCNCc1cncc(-c2ccc3[nH]nc(-c4nc5cc(F)ccc5[nH]4)c3c2)c1C [Example 2, Ethyl-{5-[3-(5-fluoro-1H-benzoimidazol-2-yl)-1H-indazol-5-yl]-4-methyl-pyridin-3-ylmethyl}-amine] | − (Weak inhibition <50%) | – | − (Weak inhibition <50%) | − (Weak inhibition <50%) | − (Weak inhibition <50%) | − (Weak inhibition <50%) | − (Weak inhibition <50%) | – | – | − (Weak inhibition <50%) | – | − (Weak inhibition <50%) | ++ (Strong inhibition >75%) | − (Weak inhibition <50%) | − (Weak inhibition <50%) | –

Reference: patent publication US7008953B2, “3, 5 Disubstituted indazole compounds, pharmaceutical compositions, and methods for mediating or inhibiting cell proliferation” (Agouron Pharmaceuticals, Inc., priority 2003, dated 2006)
